Source: patent US20250295639A1, “METHODS FOR TREATING HEART DISEASES” (Cytokinetics, Incorporated, priority 2024, published 2025)

Columns and labels:
[1] = system: patients with symptomatic oHCM; experiment: SEQUOIA-HCM cardiovascular magnetic resonance (CMR) substudy; format: in vivo, human
Excerpt: A further exploratory objective of this trial was to evaluate the effect of aficamten on left ventricular mass, function, and structure by cardiac magnetic resonance (CMR) imaging, as determined by changes from baseline to Week 24 in CMR measurements of left ventricular (LV) mass index, LVEF, septal and free wall thickness, left […] volume index, LVESV, and LVEDV. Cardiac Magnetic Resonance. A CMR imaging sub-study assessed the effects of administration of aficamten dosing on cardiac morphology, function, and fibrosis in approximately 40 oHCM patients who were eligible and consented to participate. CMR was performed during screening period and Week 24. […] Effect of Aficamten on Cardiac Structure and Function in Patients with Obstructive Hypertrophic Cardiomyopathy. For some patients with HCM, adverse remodeling of cardiac structure and function occur over time and are associated with increased risk of adverse events, including heart failure, sudden death and atrial fibrillation. Eligible participants enrolled in SEQUOIA-HCM (the study of Example 8), were offered enrolment in the cardiovascular magnetic resonance (CMR) substudy with CMR performed at baseline and at Week 24. Image analysis was performed in a blinded fashion by a core laboratory.

[2] = system: patients with symptomatic oHCM; experiment: SEQUOIA-HCM: EQ-5D-5L index and Visual Analogue Scale quality of life; format: in vivo, human
Excerpt: A further exploratory objective of this trial was to evaluate the effect of aficamten on health status and health-related quality of life as measured by PRO questionnaire, as determine by changes from baseline to Week 24 in individual responses to the EuroQol 5-dimension 5-level instrument (EQ-5D-5L). Improved exercise capacity, disease-specific quality-of-life (QoL), and hemodynamics in patients with obstructive hypertrophic cardiomyopathy (oHCM). Participants underwent blinded dose escalation over 6 weeks and were treated for 24 weeks followed by 4-week washout. EQ-5D-5L index (ranges from 0 to 1) and the Visual Analogue Scale (VAS; from 0 to 100) was measured at baseline and weeks 0, 2, 4, 8, 12, 16, 20, 24, with higher scores indicating better QoL. Aficamten treatment effect on EQ-5D-5L was estimated using linear regression (specific study visits) and mixed effects regression (overall treatment effect) using all follow-up data through week 24, with model adjustments for baseline EQ-5D-5L score and randomization stratification variables.

[3] = CMR Cohort N = 57 (Aficamten N = 25), Baseline
[4] = CMR Cohort N = 57 (Aficamten N = 25), Week 24
[5] = CMR Measurements, CMR Cohort N = 57 (Aficamten N = 25), Baseline
[6] = CMR Measurements, CMR Cohort N = 57 (Aficamten N = 25), Week 24
[7] = CMR Measurements, CMR Cohort N = 57, vs placebo
[8] = Echo Measurements, CMR Cohort N = 57 (Aficamten N = 25), Baseline
[9] = Echo Measurements, CMR Cohort N = 57 (Aficamten N = 25), Week 24
[10] = Echo Measurements, CMR Cohort N = 57, vs placebo
[11] = baseline to week 24, vs placebo
[12] = overall treatment effect through week 24

Compound: CCc1nc(-c2ccc3c(c2)CC[C@H]3NC(=O)c2cnn(C)c2)no1 [aficamten, (R)—N-(5-(5-ethyl-1,2,4-oxadiazol-3-yl)-2,3-dihydro-1H-inden-1-yl)-1-methyl-1H-pyrazole-4-carboxamide]
- LGE (% of LV mass) (CMR) ([1]; Baseline, N = 21): 2.0 % of LV mass
- LGE Mass (CMR) ([1]; Baseline, N = 21): 3.2 g
- Mitral Regurgitation Fraction (CMR) ([1]; Baseline, N = 21): 24%
- Mitral Regurgitation Volume (CMR) ([1]; Baseline, N = 21): 22 mL
- NT-proBNP, median ([1]; Baseline, N = 21): 708 pg/mL
- NYHA Class II, patients ([1]; Baseline, N = 21): 67%
- NYHA Class III, patients ([1]; Baseline, N = 21): 33%
- Absolute myocyte mass index (CMR) ([1]; Baseline, N = 21, mean ± SD): 84 ± 25 g/m^2
- Echo LVOT Gradient at Rest ([1]; Baseline, N = 21, mean ± SD): 55 ± 32 mm Hg
- Echo LVOT Gradient with Valsalva ([1]; Baseline, N = 21, mean ± SD): 85 ± 45 mm Hg
- LA Volume Index (CMR) ([1]; Baseline, N = 21, mean ± SD): 68 ± 19 mL/m^2
- LV Ejection Fraction (CMR) ([1]; Baseline, N = 21, mean ± SD): 77.4 ± 5.6%
- LV End Diastolic Volume Index (CMR) ([1]; Baseline, N = 21, mean ± SD): 67 ± 15 mL/m^2
- LV End Systolic Volume Index (CMR) ([1]; Baseline, N = 21, mean ± SD): 15.3 ± 5.9 mL/m^2
- LV Extracellular Volume Fraction (CMR) ([1]; Baseline, N = 21, mean ± SD): 26.7 ± 2.7%
- LV Mass Index (CMR) ([1]; Baseline, N = 21, mean ± SD): 113 ± 33 g/m^2
- LV Maximal Wall Thickness (CMR) ([1]; Baseline, N = 21, mean ± SD): 19.3 ± 4.3 mm
- LV Native T1 (CMR) ([1]; Baseline, N = 21, mean ± SD): 1066 ± 121 ms
- LV extracellular volume mass index (CMR) ([1]; Baseline, N = 21, mean ± SD): 31 ± 10 %/g/m^2
- Peak oxygen consumption, pVO2 ([1]; Baseline, N = 21, mean ± SD): 20.1 ± 4.4 mL/kg/min
- NT-proBNP, median [1, 3]: 708 pg/mL
- Peak oxygen consumption, pVO2 [1, 3]: 19.8 ± 4.7 mL/kg/min
- Improvement in NYHA by ≥1 FC, n (%) [1, 4]: 15 (60.0) n (%)
- NT-proBNP, median [1, 4]: 81 pg/mL
- Peak oxygen consumption, pVO2 [1, 4]: 21.0 ± 4.9 mL/kg/min
- Improvement in NYHA by ≥1 FC, Treatment Effect, OR ([1]; CMR Cohort N = 57, Week 24, vs placebo): OR 3.00
- NT-proBNP, Treatment Effect ([1]; CMR Cohort N = 57, vs placebo): -85 pg/mL
- Peak oxygen consumption, pVO2, Treatment Effect ([1]; CMR Cohort N = 57, vs placebo): 1.2 mL/kg/min
- LA Volume Index [1, 5]: 68 ± 19 mL/m^2
- LV Ejection Fraction [1, 5]: 77.4 ± 5.6%
- LV Mass Index [1, 5]: 113 ± 33 g/m^2
- LV Maximal Wall Thickness [1, 5]: 19.3 ± 4.3 mm
- LA Volume Index [1, 6]: 52 ± 14 mL/m^2
- LV Ejection Fraction [1, 6]: 73.8 ± 5.9%
- LV Mass Index [1, 6]: 103 ± 28 g/m^2
- LV Maximal Wall Thickness [1, 6]: 17.8 ± 4.5 mm
- LA Volume Index, Treatment Effect [1, 7]: −13 mL/m^2
- LV Ejection Fraction, Treatment Effect [1, 7]: −2.6%
- LV Mass Index, Treatment Effect [1, 7]: −15 g/m^2
- LV Maximal Wall Thickness, Treatment Effect [1, 7]: −2.1 mm
- NT-proBNP, change relative to placebo ([1]; CMR substudy patients, Week 24): −85%
- echocardiographic Valsalva LVOT-G, Δ least squares mean relative to placebo ([1]; CMR substudy patients, Week 24): −50 mm Hg
- echocardiographic resting LVOT-G, Δ least squares mean relative to placebo ([1]; CMR substudy patients, Week 24): −46 mm Hg
- LA Volume Index [1, 8]: 40 ± 11 mL/m^2
- LV Ejection Fraction [1, 8]: 74.3 ± 4.7%
- LV Mass Index [1, 8]: 126 ± 22 g/m2
- LV Maximal Wall Thickness [1, 8]: 20.6 ± 2.7 mm
- LVOT gradient at rest [1, 8]: 55 ± 30 mmHg
- LVOT gradient with Valsalva [1, 8]: 84 ± 42 mmHg
- LA Volume Index [1, 9]: 39 ± 10 mL/m^2
- LV Ejection Fraction [1, 9]: 68.2 ± 7.8%
- LV Maximal Wall Thickness [1, 9]: 18.7 ± 3.1 mm
- LVOT gradient at rest [1, 9]: 25 ± 25 mmHg
- LVOT gradient with Valsalva [1, 9]: 38 ± 30 mmHg
- LA Volume Index, Treatment Effect [1, 10]: −1 mL/m^2
- LV Ejection Fraction, Treatment Effect [1, 10]: −3.6%
- LV Mass Index, Treatment Effect [1, 10]: −10 g/m2
- LV Maximal Wall Thickness, Treatment Effect [1, 10]: −1.5 mm
- LVOT gradient at rest, Treatment Effect [1, 10]: −38 mmHg
- LVOT gradient with Valsalva, Treatment Effect [1, 10]: −47 mmHg
- CMR LV end-diastolic and end-systolic volumes ([1]; Week 24): no significant change
- CMR LV mass index, Δ least squares mean relative to placebo ([1]; Week 24): −15 g/m^2
- CMR left atrial volume index, Δ least squares mean relative to placebo ([1]; Week 24): −13 mL/m^2
- CMR maximal LV wall thickness, Δ least squares mean relative to placebo ([1]; Week 24): −2.1 mm
- CMR native Tl relaxation time, Δ least squares mean relative to placebo ([1]; Week 24): -37 ms
- LV extracellular volume fraction [ECV] ([1]; Week 24): 0.7%
- LV replacement fibrosis, late gadolinium enhancement [LGE] mass ([1]; Week 24): -0.7 g
- LGE (% of LV mass) (CMR) ([1]; Week 24, N = 21): 1.4 % of LV mass
- LGE Mass (CMR) ([1]; Week 24, N = 21): 1.5 g
- Mitral Regurgitation Fraction (CMR) ([1]; Week 24, N = 21): 13%
- Mitral Regurgitation Volume (CMR) ([1]; Week 24, N = 21): 12 mL
- NT-proBNP, median ([1]; Week 24, N = 21): 79 pg/mL
- NYHA Class I, patients ([1]; Week 24, N = 21): 57%
- NYHA Class II, patients ([1]; Week 24, N = 21): 29%
- NYHA Class III, patients ([1]; Week 24, N = 21): 14%
- Absolute myocyte mass index (CMR) ([1]; Week 24, N = 21, mean ± SD): 75 ± 22 g/m^2
- Echo LVOT Gradient at Rest ([1]; Week 24, N = 21, mean ± SD): 21 ± 18 mm Hg
- Echo LVOT Gradient with Valsalva ([1]; Week 24, N = 21, mean ± SD): 35 ± 26 mm Hg
- LA Volume Index (CMR) ([1]; Week 24, N = 21, mean ± SD): 52 ± 14 mL/m^2
- LV Ejection Fraction (CMR) ([1]; Week 24, N = 21, mean ± SD): 73.8 ± 5.9%
- LV End Diastolic Volume Index (CMR) ([1]; Week 24, N = 21, mean ± SD): 60 ± 11 mL/m^2
- LV End Systolic Volume Index (CMR) ([1]; Week 24, N = 21, mean ± SD): 16.0 ± 5.1 mL/m^2
- LV Extracellular Volume Fraction (CMR) ([1]; Week 24, N = 21, mean ± SD): 27.4 ± 7.1%
- LV Mass Index (CMR) ([1]; Week 24, N = 21, mean ± SD): 103 ± 28 g/m^2
- LV Maximal Wall Thickness (CMR) ([1]; Week 24, N = 21, mean ± SD): 17.8 ± 4.5 mm
- LV Native T1 (CMR) ([1]; Week 24, N = 21, mean ± SD): 1021 ± 93 ms
- LV extracellular volume mass index (CMR) ([1]; Week 24, N = 21, mean ± SD): 29 ± 12 %/g/m^2
- Peak oxygen consumption, pVO2 ([1]; Week 24, N = 21, mean ± SD): 21.1 ± 4.7 mL/kg/min
- Absolute myocyte mass index (CMR), Treatment Effect (95% CI) [1, 11]: −14 (−23, −4) g/m^2
- Echo LVOT Gradient at Rest, Treatment Effect [1, 11]: −46 mm Hg
- Echo LVOT Gradient with Valsalva, Treatment Effect [1, 11]: −50 mm Hg
- LA Volume Index (CMR), Treatment Effect [1, 11]: −13 mL/m^2
- LGE (% of LV mass) (CMR), Treatment Effect (95% CI) [1, 11]: −0.4 (−2.1, 1.2) % of LV mass
- LGE Mass (CMR), Treatment Effect (95% CI) [1, 11]: −0.7 (−2.9, 1.6) g
- LV Ejection Fraction (CMR), Treatment Effect [1, 11]: −2.6%
- LV End Diastolic Volume Index (CMR), Treatment Effect [1, 11]: −1 mL/m^2
- LV End Systolic Volume Index (CMR), Treatment Effect [1, 11]: 1.4 mL/m^2
- LV Extracellular Volume Fraction (CMR), Treatment Effect (95% CI) [1, 11]: 0.7 (−2.2, 3.6) %
- LV Mass Index (CMR), Treatment Effect [1, 11]: −15 g/m^2
- LV Maximal Wall Thickness (CMR), Treatment Effect [1, 11]: −2.1 mm
- LV Native T1 (CMR), Treatment Effect (95% CI) [1, 11]: −37 (−69, −5) ms
- LV extracellular volume mass index (CMR), Treatment Effect [1, 11]: −3.9 %/g/m^2
- Mitral Regurgitation Fraction (CMR), Treatment Effect [1, 11]: −6%
- Mitral Regurgitation Volume (CMR), Treatment Effect [1, 11]: -7 mL
- NT-proBNP, Treatment Effect [1, 11]: −85%
- Peak oxygen consumption, pVO2, Treatment Effect [1, 11]: 1.0 mL/kg/min
- Treatment Effect ≥1 NYHA Class Improvement [1, 11]: 36%
- QoL after treatment withdrawal at 24 weeks compared with placebo ([2]; Index and VAS): worsened
- improvement of EQ-5D-5L VAS versus placebo [2, 12]: 2.8 points
- improvement of EQ-5D-5L index versus placebo [2, 12]: 0.026
